The values that follow come from patent US20240374590A1, “COMPOSITIONS AND METHODS FOR TREATING CANCER” (A2A PHARMACEUTICALS, INC., priority 2021, published 2024).

The structures appear in SMILES notation.

In assay [1] the test system is HCT-116 human colon carcinoma cell line. As to the kind of experiment: Cell viability assay (SRB) in HCT-116. To be noted: 72 hours after treatment, read-out: HCT116 IC50. The assay is classed as cell-based. The procedure:
(§1) Human colon carcinoma cell line HCT-116 was a kind gift from Igor Ronninson from University of South Caroli, Columbia, USA. Human breast cancer cell line, JIMT-1 was kindly provided by Ali Osmay Güre from Bilkent University, Ankara, Turkey. Cells were cultured in Dulbecco's modified Eagle's medium (Lonza, NJ, USA), supplemented with 10% fetal bovine serum (FBS, Lonza), 1% non-essential amino acid (NEAA), 2 mM L-glutamine (Sigma Aldrich, MO, USA) and 50 U/ml penicillin/streptomycin (P/S). HCT-116 cells were cultured in McCoy's 5A (modified) (Gibco) medium supplemented with FBS, NEAA, L-glutamine and P/S. All cell lines were tested regularly using MycoAlert Mycoplasma Detection Kit (Lonza). The cumulative length of the cells between thawing and use in the experiments was less than 20 passages.
(§2) Newly synthesized molecules were dissolved in 100% DMSO to yield a stock concentration of 10 mM. For cell viability assay, JIMT-1 (3×10^3 cells/well) and HCT-116 (4×10^3), cells were seeded into 96-well plates, and 24 hours after cell seeding inhibitor treatments were performed at different concentrations. Cell viability was measured 72 hours after treatment with Sulforhodamine B (SRB, Sigma Aldrich) assay as recommended by the manufacturer.

Assay [2] concerns JIMT-1 human breast cancer cell line. As to the kind of experiment: Cell viability assay (SRB) in JIMT-1. The assay is classed as cell-based. To be noted: 72 hours after treatment, read-out: JIMT1 IC50. The procedure:
as §1, §2

With `COc1ccc(-c2cc(N(C)c3ccnc(N4C[C@@H](C)O[C@@H](C)C4)n3)[nH]n2)c(F)c1` [Compound 275, 2-((2R,6S)-2,6-dimethylmorpholino)-N-(3-(2-fluoro-4-methoxyphenyl)-1H-pyrazol-5-yl)-N-methylpyrimidin-4-amine], the half-inhibitory concentration (IC50) in assay [1] turned out to be 46 nM; in assay [2], 13 nM.
For `COc1ccc(-c2cc(Nc3ccnc(N4CCC(C(F)(F)F)CC4)n3)[nH]n2)cc1F` [Compound 89, N-(3-(3-fluoro-4-methoxyphenyl)-1H-pyrazol-5-yl)-2-(4-(trifluoromethyl)piperidin-1-yl)pyrimidin-4-amine], in that order: 9 nM and 31 nM.
`FC(F)Oc1ccc(-c2cc(Nc3ccnc(N4CCC(F)(F)C4)n3)[nH]n2)cc1` [Compound 252, N-(3-(4-(difluoromethoxy)phenyl)-1H-pyrazol-5-yl)-2-(3,3-difluoropyrrolidin-1-yl)pyrimidin-4-amine]: the values for the IC50 in assay [1] and in assay [2] were 1260 nM and 122 nM, respectively.
With `FC(F)Oc1ccc(-c2cc(Nc3ccnc(N4C[C@H]5C[C@@H]4CO5)n3)[nH]n2)cc1` [Compound 262, 2-((1R,4R)-2-oxa-5-azabicyclo[2.2.1]heptan-5-yl)-N-(3-(4-(difluoromethoxy)phenyl)-1H-pyrazol-5-yl)pyrimidin-4-amine], the concentration for half-maximal inhibition (IC50) in assay [1] is not below 10000 nM; in assay [2], 329 nM.
On to `COc1ccc(-c2cc(Nc3nc(N4C[C@@H](C)O[C@@H](C)C4)ncc3F)[nH]n2)c(F)c1` [Compound 282, 2-((2R,6S)-2,6-dimethylmorpholino)-5-fluoro-N-(3-(2-fluoro-4-methoxyphenyl)-1H-pyrazol-5-yl)pyrimidin-4-amine], for which the concentration for half-maximal inhibition (IC50) amounted to 46 nM in assay [1] and 45 nM in assay [2].
For the compound `FC(F)Oc1ccc(-c2cc(Nc3ccnc(N4CCCC4)n3)[nH]n2)cc1` [Compound 242, N-(3-(4-(difluoromethoxy)phenyl)-1H-pyrazol-5-yl)-2-(pyrrolidin-1-yl)pyrimidin-4-amine], the values for the half-inhibitory concentration (IC50) in assay [1] and in assay [2] were 1490 nM and 110 nM, respectively.
In the case of `C[C@@H]1CN(c2nccc(Nc3cc(-c4ccc(OCF)cc4)n[nH]3)n2)C[C@H](C)O1` [Compound 210, 2-((2R,6S)-2,6-dimethylmorpholino)-N-(3-(4-(fluoromethoxy)phenyl)-1H-pyrazol-5-yl)pyrimidin-4-amine], the 50% inhibitory concentration (IC50) in assay [1] worked out at 31 nM; in assay [2], 30 nM.
Turning to `COc1ccc(-c2cc(Nc3ccnc(N4C[C@@H](C)O[C@@H](C)C4)n3)n(C)n2)c(F)c1` [Compound 187, 2-((2R,6S)-2,6-dimethylmorpholino)-N-(3-(2-fluoro-4-methoxyphenyl)-1-methyl-1H-pyrazol-5-yl)pyrimidin-4-amine], the 50% inhibitory concentration (IC50) came out at 228 nM in assay [1] and 158 nM in assay [2].
In the case of `FC(F)Oc1ccc(-c2cc(Nc3ccnc(N4CCCOCC4)n3)[nH]n2)cc1` [Compound 255, N-(3-(4-(difluoromethoxy)phenyl)-1H-pyrazol-5-yl)-2-(1,4-oxazepan-4-yl)pyrimidin-4-amine], the IC50 in assay [1] worked out at 312 nM; in assay [2] it was 279 nM.
On to `FC(F)Oc1ccc(-c2cc(Nc3ccnc(N4CC5CCC(C4)O5)n3)[nH]n2)cc1` [Compound 260, 2-(8-oxa-3-azabicyclo[3.2.1]octan-3-yl)-N-(3-(4-(difluoromethoxy)phenyl)-1H-pyrazol-5-yl)pyrimidin-4-amine], for which the results for the half-maximal inhibitory concentration (IC50) in assay [1] and in assay [2] were 8980 nM and 648 nM, respectively.
Take `C[C@@H]1CN(c2ncc(F)c(Nc3cc(-c4ccc(OC(F)F)cc4)n[nH]3)n2)C[C@H](C)O1` [Compound 287, N-(3-(4-(difluoromethoxy)phenyl)-1H-pyrazol-5-yl)-2-((2R,6S)-2,6-dimethylmorpholino)-5-fluoropyrimidin-4-amine]: the concentration for half-maximal inhibition (IC50) in assay [1] amounted to 91 nM; in assay [2] it was 49 nM.
With `COc1ccc(-c2cc(Nc3nc(N4C[C@@H](C)O[C@@H](C)C4)ncc3Cl)[nH]n2)c(F)c1` [Compound 281, 5-chloro-2-((2R,6S)-2,6-dimethylmorpholino)-N-(3-(2-fluoro-4-methoxyphenyl)-1H-pyrazol-5-yl)pyrimidin-4-amine], the IC50 came out at 436 nM in assay [1] and 131 nM in assay [2].
Take `COc1ccc(-c2cc(Nc3ccnc(N4CCCCCC4)n3)[nH]n2)c(F)c1` [Compound 167, 2-(azepan-1-yl)-N-(3-(2-fluoro-4-methoxyphenyl)-1H-pyrazol-5-yl)pyrimidin-4-amine]: the IC50 in assay [1] turned out to be 89 nM; in assay [2] it was 41 nM.
Consider `COc1ccc(-c2coc(Nc3ccnc(N4CCOCC4)n3)n2)cc1` [Compound 177, 4-(4-methoxyphenyl)-N-(2-morpholinopyrimidin-4-yl)oxazol-2-amine], for which, in assay [2], the IC50 was not below 10000 nM.
With `COc1ccc(-c2csc(Nc3ccnc(N4CCOCC4)n3)n2)cc1` [Compound 174, 4-(4-methoxyphenyl)-N-(2-morpholinopyrimidin-4-yl)thiazol-2-amine], the IC50 in assay [2] was not below 10000 nM.
On the same count and under the same terms, the same measure for `COc1ccc(-c2cc(Nc3nc(N4C[C@@H](C)O[C@@H](C)C4)ncc3C)[nH]n2)c(F)c1` [Compound 283, 2-((2R,6S)-2,6-dimethylmorpholino)-N-(3-(2-fluoro-4-methoxyphenyl)-1H-pyrazol-5-yl)-5-methylpyrimidin-4-amine]: 212 nM.
Still for that read-out and setting: with `C[C@@H]1CN(c2cc(Nc3cc(-c4ccc(OC(F)F)cc4)n[nH]3)ccn2)C[C@H](C)O1` [Compound 308, N-(3-(4-(difluoromethoxy)phenyl)-1H-pyrazol-5-yl)-2-((2R,6S)-2,6-dimethylmorpholino)pyridin-4-amine] the figure was 53 nM.
Regarding `Cc1ccc(-c2cc(Nc3ccnc(N4C[C@@H](C)O[C@@H](C)C4)n3)[nH]n2)cc1` [Compound 198, 2-((2R,6S)-2,6-dimethylmorpholino)-N-(3-(p-tolyl)-1H-pyrazol-5-yl)pyrimidin-4-amine], in assay [1], the half-maximal inhibitory concentration (IC50) is 80 nM.
On to `C[C@@H]1CN(c2nccc(Nc3cc(-c4ccc(S(C)(=O)=O)cc4)n[nH]3)n2)C[C@H](C)O1` [Compound 206, 2-((2R,6S)-2,6-dimethylmorpholino)-N-(3-(4-(methylsulfonyl)phenyl)-1H-pyrazol-5-yl)pyrimidin-4-amine], for which the IC50 in assay [1] is 4640 nM.
Take `COc1ccc(-c2cc(Nc3cccc(N4CCOCC4)n3)[nH]n2)c(F)c1` [Compound 298, N-(3-(2-fluoro-4-methoxyphenyl)-1H-pyrazol-5-yl)-6-morpholinopyridin-2-amine]: the IC50 in assay [2] was determined as 34 nM.
As to `C[C@@H]1CN(c2nccc(Nc3cc(-c4ccc(Cl)cc4)n[nH]3)n2)C[C@H](C)O1` [Compound 197, N-(3-(4-chlorophenyl)-1H-pyrazol-5-yl)-2-((2R,6S)-2,6-dimethylmorpholino)pyrimidin-4-amine], in assay [1], the IC50 was determined as 255 nM.
Consider `C[C@@H]1CN(c2nccc(Nc3cc(-c4ccc(N5CCCC5)cc4)n[nH]3)n2)C[C@H](C)O1` [Compound 209, 2-((2R,6S)-2,6-dimethylmorpholino)-N-(3-(4-(pyrrolidin-1-yl)phenyl)-1H-pyrazol-5-yl)pyrimidin-4-amine], for which the IC50 in assay [1] is 108 nM.
As for `CCc1ccc(-c2cc(Nc3ccnc(N4C[C@@H](C)O[C@@H](C)C4)n3)[nH]n2)cc1` [Compound 199, 2-((2R,6S)-2,6-dimethylmorpholino)-N-(3-(4-ethylphenyl)-1H-pyrazol-5-yl)pyrimidin-4-amine], the half-inhibitory concentration (IC50) in assay [1] amounted to 90 nM.

In general, IC50 refers to the concentration at which inhibition is half-maximal.
